No end group written: not given here.
Tests used:
[1] = Deaths, clinical morbidity, blood chemistries and signs of toxicity in treated EAE mice; assay type: in vivo, SJL/J mice
Description: An EAE model was established in strain SJL/J mice that is characterized by a relapsing-remitting clinical course. […] Immediately after immunization, animals received an intravenous injection of 200 ng Bordetella pertussis toxin in 200 μl PBS. Animals were weighed daily and assessed for clinical signs of EAE by two independent observers.
[…] Blood was collected for 5 weeks to document changes in hematocrit.

[2] = tested on: brain injured mice (controlled cortical impact); assay: Controlled cortical impact traumatic brain injury, TUNEL positive cells in the injured hemisphere; conditions: for number of dying (TUNEL positive) cells: i.p. within 30 minutes of trauma for 3 days, both 3 and 8 days post injury, p<0.001 and p<0.01
From the text: C57BL/6 mice were anesthetized with isofurane/oxygen inhalation and placed in a stereotaxic frame. The head position was established in the horizontal plane and a craniotomy (4 mm) was produced lateral to the sagittal suture between lambda and bregma, with the dura mater left intact over the cortex. A cortical contusion injury was produced utilizing a pneumatically driven 2.5 mm diameter rod tip at 3.5 m/s to a depth of 1 mm with a dwell time of 400 ms (Precision System Instruments TBI-0300 Impactor, Lexington, Ky.). After injury, a 5 mm disk constructed from dental cement was placed over the craniotomy site and adhered to the skull using cyanocrylate. During the early post-operative phase, animal temperature was maintained by placing the animals on heating pads.
Mice in the whole molecule EPO group received 5000 U/kg body weight rhEPO (Epoetin alpha, Amgen, Thousand Oaks, Calif.) intraperitoneally (i.p.). […] Mice in the PBS and sham-operated groups received 200 μl filtered sterile PBS.
Mice were sacrificed at 3 days or 8 days post-injury; brains were collected and immediately frozen on dry ice. The frozen brains were serially sectioned in coronal cuts onto 15 slides with 12 sections (16 μm thickness) per slide extending from the anterior to the posterior edge of the lesion. Sections were placed such that each individual slide contained a representative sampling of the entire lesion within the injured hemisphere.
Cell death in the mouse brains was detected using a modification of the Apoptag® (Millipore, Billerica, Mass.) in situ TUNEL method. Cryosections (16 μm thickness) were mounted and fixed in 100% acetone for 10 minutes. The slides were rehydrated and post-fixed in 2:1 ethanol:acetic acid for 11 minutes at −20° C., and then washed thoroughly in Stop/Wash Buffer (Apoptag®). Slides were incubated with equilibration buffer for 10 minutes immediately followed by working strength TdT enzyme (33 parts enzyme/77 parts buffer (Apoptag®)) for 60 minutes at 37° C. The TUNEL reaction was detected with Cy3 anti-digox (1:200; Jackson Immunoresearch, West Grove, Pa.).
Micrographs of the processed slides were acquired with a fluorescent Olympus BX60 microscope fitted with a Retiga 2000R digital camera at 10 times magnification. The total number of TUNEL positive cells in lesioned hemispheres and the total area of the brain containing the TUNEL positive cells were quantified using digital imaging software (I.P. lab 4.0, Becton Dickinson, Franklin Lakes, N.J.).
The animals were sacrificed after 3 or 8 days and the injured forebrain lesions were serially sectioned. Cell death within the damaged hemisphere was quantified by DNA fragmentation (TUNEL stain) to determine the degree of neuroprotection. Serial sections containing the entire lesion site and the TUNEL labeled peri-lesional zone were photographed, digitized, and the images used to quantify the number of positive cells by IP lab 4.0 Software (Becton Dickinson, Franklin Lakes, N.J.).
Mice were sacrificed 3 days post-TBI. The effect of treatment delay was determined by TUNEL staining.

[3] = parameters: species or system SJL/J mice; conditions: mouse, in vivo
Description: An EAE model was established in strain SJL/J mice that is characterized by a relapsing-remitting clinical course. Briefly, mice were immunized subcutaneously at the tail base with 100 μl (200 μg) myelin oligodendrocyte glycoprotein (MOG) peptide dissolved in distilled water and emulsified with an equal volume of complete Freund's adjuvant supplemented with 4 mg/ml Mycobacterium tuberculosis H37Ra. Immediately after immunization, animals received an intravenous injection of 200 ng Bordetella pertussis toxin in 200 μl PBS. Animals were weighed daily and assessed for clinical signs of EAE by two independent observers.
Five mice per group were given either daily i.v. full length EPO (50-500 U/kg) or short EPO-peptide JM-4 peptide (250-500 μg/kg; 5-10 μg/mouse) in PBS, or PBS alone for 9 to 14 days. Blood was collected for 5 weeks to document changes in hematocrit.
Hematocrit can be determined by centrifuging heparinized blood in a capillary tube (microhematocrit tube) at 10,000 rpm for 5 minutes. This separates the blood into layers. The volume of packed red blood cells, divided by the total volume of the blood sample gives the packed cell volume (PCV). Because a tube is used, this can be calculated by measuring the lengths of the layers.

TBI mice = assay: Simple Neuroassessment of Asymmetric Impairment (SNAP) after traumatic brain injury; assay type: in vivo, C57BL/6 mice; conditions: 10 days post-injury, versus vehicle treated TBI mice
Description: SNAP is a scoring system, based on six tests, developed and validated to assess neurological deficits induced in a mouse model of traumatic brain injury. Mice are evaluated to assess neurological parameters for: (1) interaction with a handler, (2) cage grasp, (3) visual placing, (4) pacing/circling, (5) posture and head tilt, and (6) the baton test. The results from each of the six tests are summed to derive the overall SNAP score. SNAP scores are high when asymmetric deficits are apparent; thus, a neurologically intact animal would be expected to have a SNAP score of “0.” SNAP allows for ambiguous results (for example, a score of ‘1’) and test scores of 2 to 5 are assigned when asymmetric deficits were apparent. In addition, a range is allowed when the deficit appears to span more than one definition for a test score; ranges then are averaged to derive the test score (for example, a range of 2 to 3 would be scored as 2.5 for that test). […]
An uninjured mouse would ambulate in a random pattern (for example, turning either to the right or turning to the left when facing a corner). An injured mouse was expected to ambulate in a consistent pattern (for example, consistently turn toward one direction, and not be readily coaxed in the opposite direction). […]
The effect of JM-4 peptide therapy on neurologic deficits (SNAP scores) was evaluated 10 days post-injury by blinded observers.

[4] = tested on: PLP antigen-induced symptomatic SJL/J EAE mice; assay: Spinal cord pathology in EAE mice (mononuclear infiltration, SMI-32 staining); assay type: in vivo; conditions: treated 7 days
Description: Groups of PLP antigen-induced symptomatic SJL/J EAE mice were treated with either JM-4 peptide or PBS for 7 days, and spinal cords were removed for pathologic examination.
Monoclonal antibody (SMI-32) (Sternberger Monoclonal Antibodies, Lutherville, Md.) that reacts with a nonphosphorylated epitope in neurofilament H-was used. The reaction is masked when the epitope is phosphorylated. Briefly, frozen tissue sections (16 μm) were acetone-fixed for 10 minutes and air dried. Antigen retrieval was performed using 1× Target Unmasking Fluid (TUF) (Zymed Laboratories, San Francisco, Calif.). Slides were reacted with TUF at 95° C. for 10 minutes, then at room temperature (25° C.) for 10 minutes. SMI-32 primary antibody was diluted (1:5000) with 2% normal horse serum in PBS (1×) and reacted overnight at 4° C. Additional slides were processed without the primary antibody to provide an appropriate control. Slides then were washed twice with PBS (1×) for 3 minutes each wash, and reacted with a biotinylated anti-mouse antibody (Vector Laboratories, Burlingame, Calif.). The slides were washed twice (PBS (1×), 3 minutes each wash), reacted with an avidin-biotin/horseradish peroxidase complex (Vector Laboratories, Burlingame, Calif.) for 30 minutes at room temperature, and washed (PBS (1×), 3 minutes). Slides were visualized with Tyramide signal amplification/Cyanine-3 dye (Perkin Elmer, Waltham, Mass.) at 1:200 dilution in amplification buffer (Perkin Elmer, Waltham, Mass.). Slides then were mounted in glycerol and examined by fluorescence microscopy.
Acute axonal injury in spinal long tract was assessed by SMI-32 staining for nonphosphorylated neurofilaments (FIG. 3, black DAB staining, bottom 2 panels).

[5] = tested on: acutely symptomatic EAE animals; assay: JM-4 peptide therapy on acutely symptomatic EAE animals; assay type: in vivo; conditions: 4 days of therapy
From the text: The effect of JM-4 peptide therapy on acutely symptomatic EAE animals was studied. Five sham-treated animals with EAE were compared to five EAE animals that had received 4 days of therapy with JM-4 peptide. The sham-treated animals were barely capable of moving their heads with marked four limb weakness. […] The JM-4 peptide treated animals have some neurologic residua (they have a waddling gait and their tails drag).

[6] = tested on: brain injured mice (controlled cortical impact); assay: Summed area containing TUNEL positive cells within the lesioned hemisphere; assay type: in vivo, C57BL/6 mice; conditions: 3 days post-injury
Description: The effect of JM-4 peptide therapy on the summed area containing TUNEL positive cells within the lesioned hemisphere was evaluated 3 days post-injury. In this experiment, the same TUNEL stained sections (from Example 5) used to quantify the number of TUNEL positive cells were used to quantify the total area containing dying cells within the injured hemisphere.

EAE in SJL/J mice = assay: PLP antigen-induced relapsing-remitting EAE, clinical score; assay type: in vivo
Description: JM-4 peptide rapidly reduces neurologic deficit in EAE mice. […] Mice first were immunized with a suboptimal dose of PLP antigen (100 μg) on day 0; the mice developed clinical deficits, and were allowed to recover for about 21 days. Recovered EAE mice received 7 days of treatment with either cyclic JM-4 peptide (i.v. 250 ng/kg) or PBS (i.v.) before receiving a second PLP antigen immunization (100 μg).

Epoetin Alfa [rhEPO, reference compound]
clinical signs of toxicity ([1]; SJL/J mice treated with rhEPO): developed red-blue ears and tails within 5 to 6 days, typically leading to death
number of dying (TUNEL positive) cells [2]: dramatically reduced
effect on hematocrit [3]: increased markedly within one week

GCAEHCSLNENITVPDTKV (also: cyclic, mode of cyclisation not given here) [JM-4]
neurologic deficits (composite SNAP score) (TBI mice): significant improvement in neurologic deficits
signs of toxicity ([1]; PLP EAE mice, JM-4 therapy i.v. 250 ng/kg): nor were any signs of toxicity observed
blood chemistries ([1]; small group treated for 7 days): remained unaltered
vacuolar changes ([4]; versus PBS): fewer vacuolar changes
white matter mononuclear infiltration ([4]; versus PBS): marked reduction
injured SMI-32 positive axons ([4]; versus sham): far fewer injured axons
cell death judged by TUNEL positivity ([2]; 0.1 μg i.p. daily for 72 hours): failed to significantly block cell death
cell death judged by TUNEL positivity ([2]; 1 μg i.p. daily for 72 hours): failed to significantly block cell death
reduction of neural cell death (TUNEL) ([2]; 10 μg i.p., 3 days, FIG. 5A): ~70%
TUNEL positive dying cells versus sham ([2]; 10 μg i.p., first treatment 15 minutes post-injury): statistically significant neuroprotective effect
TUNEL positive dying cells versus sham ([2]; 10 μg i.p., first treatment 3 hours post-injury): equally effective
TUNEL positive dying cells versus sham ([2]; 10 μg i.p., first treatment 9 hours post-injury): equally effective
TUNEL positive dying cells versus sham ([2]; 10 μg i.p., treatment delayed 24 hours): Very little treatment effect
cell death judged by TUNEL positivity ([2]; 10 micrograms i.p. daily for 72 hours, p=0.005): significant protected against cell death
cell death judged by TUNEL positivity ([2]; 50 micrograms i.p. daily for 72 hours, p=0.005): significant protected against cell death
cell death judged by TUNEL positivity ([2]; 100 micrograms i.p. daily for 72 hours, p=0.005): significant protected against cell death
neuroprotection by TUNEL ([2]; 8 days, FIG. 5B): neuroprotective
blocking cell death compared with whole molecule EPO ([2]; JM-4 10 μg i.p. versus EPO 5000 U/kg i.p.): at least as effective as using whole molecule EPO
cell death (TUNEL-positive cells) ([2]; PO by gavage, 100 micrograms daily, 3 hours after injury, p=0.01): effective blocking cell death
therapeutic window ([2]; following severe head trauma): at least 9 hours
number of dying (TUNEL positive) cells [2]: dramatically reduced
neurologic state versus sham-treated animals [5]: mobile and markedly improved
lesional area containing TUNEL positive cells [6]: much reduced
reduction of lesioned volume (area) ([6]; versus PBS, p<0.001): greater than 50%
clinical signs in response to the second PLP immunization (EAE in SJL/J mice; after 7 days i.v. 250 ng/kg, versus sham, p<0.05): less severe clinical signs at a later time
disease severity in long term follow-up (EAE in SJL/J mice; after discontinuation of all therapy for 30 days, p<0.001): much milder disease
clinical score versus sham treated (saline) (EAE in SJL/J mice; recovered EAE mice, 7 days i.v. 250 ng/kg, p<0.05): Marked clinical improvement
clinical score after a second seven-day treatment course (EAE in SJL/J mice; versus PBS sham treated animals): Clinical improvement again was observed
effect on hematocrit [3]: no effect on hematocrit
increase in red blood cell mass [3]: not associated with any increase in red blood cell mass
